Calls of active or inactive are those of the source.

As usually defined, the EC50 is the concentration that produces a half-maximal response. A word on the AC50: it is the midpoint of the concentration-response curve, whichever way the signal moves. As a reminder, the IC50 is the concentration at which inhibition is half-maximal.

Assay [1] in a line: cells. The class given is functional, cell-based.
The nature of assay [2]: cells. Type of assay: functional, cell-based. The source holds these as a separate data set.
Assay [3] can be described thus: HIV-1 AD8 envelope cell-cell fusion blockers – cherry-pick, dose response (AID 652062).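 Further: luciferase signal from cell-cell fusion driven by HIV-1 clade B AD8 Env; potency is for inhibitors of fusion seen as a drop in luminescence.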 Type of assay: functional, cell-based.
Another assay deals with HEK293. Nature of the assay: EBV LMP1 TES2 canonical NF-kB signalling blockers – cell-based, HEK293, luciferase, cherry-pick, dose response (AID 588343). Type of assay: functional. To be noted: Homo sapiens.
Assay [4] in a line: off-target signal loss in HeLa-CEM21 co-culture – HeLa F-luc CTL cells, cherry-picked, counter-screen for HIV-1 Env fusion inhibitor project, dose response (AID 652040).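 Further: potency for signal decrease marking cytotoxic or nonspecific inhibition.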 The class given is functional, cell-based. In general terms: The purpose of a counterscreen is to sort out artefacts and off-target activity.
The nature of assay [5]: blockers of HIV-1 ZM109 envelope-driven cell-cell fusion – HeLa effector, CEM target cells, luciferase, cherry-pick, dose response (AID 652058).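 Further: luciferase signal from HIV-1 Env mediated cell-cell fusion of effector and target cells.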 Type of assay: functional, cell-based.
Assay [6] is described as follows: blockers of HIV-1 envelope-mediated cell-cell fusion – cherry-pick, dose response (AID 652057). Type of assay: functional, cell-based.
For assay [7], the target named is T1, Short transient receptor potential channel 4 (Mus musculus, UniProt Q9QUQ5).
T1 sequence (Q9QUQ5 whole entry): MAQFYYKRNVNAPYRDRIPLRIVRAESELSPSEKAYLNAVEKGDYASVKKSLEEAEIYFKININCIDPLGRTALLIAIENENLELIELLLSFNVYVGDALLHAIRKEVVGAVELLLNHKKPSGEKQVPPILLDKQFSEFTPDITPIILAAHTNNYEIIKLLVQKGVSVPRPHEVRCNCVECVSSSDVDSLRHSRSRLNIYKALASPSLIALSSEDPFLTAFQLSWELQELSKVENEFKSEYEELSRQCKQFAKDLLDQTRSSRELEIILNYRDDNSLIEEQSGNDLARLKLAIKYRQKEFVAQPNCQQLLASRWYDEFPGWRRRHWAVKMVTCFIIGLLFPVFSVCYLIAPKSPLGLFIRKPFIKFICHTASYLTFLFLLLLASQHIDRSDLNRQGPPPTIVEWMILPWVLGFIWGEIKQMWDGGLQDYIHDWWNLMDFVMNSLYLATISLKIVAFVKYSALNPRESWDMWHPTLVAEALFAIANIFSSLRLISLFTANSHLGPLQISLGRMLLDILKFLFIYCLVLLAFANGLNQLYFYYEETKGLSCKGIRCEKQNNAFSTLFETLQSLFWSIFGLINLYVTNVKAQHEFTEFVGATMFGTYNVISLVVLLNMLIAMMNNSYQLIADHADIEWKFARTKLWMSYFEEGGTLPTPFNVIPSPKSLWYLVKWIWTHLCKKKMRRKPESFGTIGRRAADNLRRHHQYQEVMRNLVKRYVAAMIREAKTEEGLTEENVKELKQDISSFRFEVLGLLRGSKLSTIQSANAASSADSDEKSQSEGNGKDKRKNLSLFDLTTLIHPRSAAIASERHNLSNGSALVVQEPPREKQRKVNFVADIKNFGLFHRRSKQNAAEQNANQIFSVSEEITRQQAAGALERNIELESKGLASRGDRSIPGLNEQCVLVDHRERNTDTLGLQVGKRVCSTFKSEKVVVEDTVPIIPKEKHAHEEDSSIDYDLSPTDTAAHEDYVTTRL
Nature of the assay: block of DAMGO-driven TRPC4 calcium entry – cell-based, HEK293 TRPC4/mu-opioid, Fluo-4 calcium, dose response (AID 434942).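 Further: potency of inhibitors blocking the TRPC4 calcium response.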 Type of assay: functional.

For assay [8], the target named is T2, Beta-lactamase (Pseudomonas aeruginosa, UniProt Q79MP6). Nature of the assay: […] counterscreen for selective VIM-2 inhibitors: dose response biochemical high throughput screening assay to identify inhibitors of IMP-1 metallo-beta-lactamase.
T2 sequence (Q79MP6 whole entry): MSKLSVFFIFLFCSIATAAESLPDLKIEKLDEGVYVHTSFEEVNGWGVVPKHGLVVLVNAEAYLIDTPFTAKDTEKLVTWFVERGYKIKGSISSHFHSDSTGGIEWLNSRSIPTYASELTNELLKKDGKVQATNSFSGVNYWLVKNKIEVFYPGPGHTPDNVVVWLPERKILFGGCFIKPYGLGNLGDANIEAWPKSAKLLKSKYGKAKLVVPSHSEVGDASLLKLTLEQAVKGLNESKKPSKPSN
The target in assay [9] is Beta-lactamase (Salmonella choleraesuis (strain SC-B67), UniProt Q5J463). The experiment in a line: Epi-absorbance-based counterscreen for selective VIM-2 inhibitors: dose response biochemical high throughput screening assay to identify inhibitors of TEM-1 serine-beta-lactamase.
Beta-lactamase (Salmonella choleraesuis (strain SC-B67), UniProt Q5J463), sequence (Q5J463 whole entry): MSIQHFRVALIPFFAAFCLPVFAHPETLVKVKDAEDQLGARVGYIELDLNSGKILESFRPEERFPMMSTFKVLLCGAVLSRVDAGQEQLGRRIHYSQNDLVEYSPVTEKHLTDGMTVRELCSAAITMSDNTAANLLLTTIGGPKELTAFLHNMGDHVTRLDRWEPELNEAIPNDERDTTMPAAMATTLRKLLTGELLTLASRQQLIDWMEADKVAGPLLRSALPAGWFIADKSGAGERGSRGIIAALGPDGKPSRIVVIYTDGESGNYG
Assay [10] concerns the target T2, Beta-lactamase. The experiment in a line: inhibition of IMP-1 beta-lactamase activity – biochemical, epi-absorbance, selectivity assay for VIM-2 inhibitor project, dose response (AID 1920).
In another assay the target is Phospholipase A2 (Homo sapiens, UniProt P04054). The class given is functional.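 Further: confirmatory dose-response counterscreen on phospholipase A2, testing hits that came from an ultra-high-throughput screen for ATG4B inhibitors.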
Phospholipase A2, sequence (P04054 whole entry): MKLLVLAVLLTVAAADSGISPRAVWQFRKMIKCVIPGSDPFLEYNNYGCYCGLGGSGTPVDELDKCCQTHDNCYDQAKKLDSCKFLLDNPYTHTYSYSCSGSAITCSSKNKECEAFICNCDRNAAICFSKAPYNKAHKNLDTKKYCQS
In a further assay the target is T3, Cysteine protease ATG4B (Homo sapiens, UniProt Q9Y4P1).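 Further: Fluorescence-based dose-response confirmation assay measuring inhibition of ATG4B activity.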
T3 sequence (Q9Y4P1 whole entry): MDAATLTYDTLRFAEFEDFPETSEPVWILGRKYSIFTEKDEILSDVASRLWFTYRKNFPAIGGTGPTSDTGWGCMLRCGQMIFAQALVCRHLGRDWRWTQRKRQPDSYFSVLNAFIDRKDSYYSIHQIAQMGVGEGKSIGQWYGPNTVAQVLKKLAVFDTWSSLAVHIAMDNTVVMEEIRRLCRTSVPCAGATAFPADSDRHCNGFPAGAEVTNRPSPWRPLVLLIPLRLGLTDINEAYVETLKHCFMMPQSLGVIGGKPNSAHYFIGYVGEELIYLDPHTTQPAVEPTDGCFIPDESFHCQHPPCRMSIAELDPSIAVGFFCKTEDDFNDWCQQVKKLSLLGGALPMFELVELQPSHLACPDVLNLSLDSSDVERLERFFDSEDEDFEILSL
The class given is functional.

Assay [11] has as its target Fructose-bisphosphate aldolase (Mycobacterium tuberculosis, UniProt P9WQA3). The experiment in a line: Fluorescence-based biochemical high throughput dose response assay for inhibitors of the fructose-bisphosphate aldolase (FBA) of M. tuberculosis. Type of assay: functional.
The target of assay [12] is T4, Methionyl-tRNA synthetase, putative (Trypanosoma brucei brucei, UniProt Q38C91).
T4 sequence (Q38C91 whole entry): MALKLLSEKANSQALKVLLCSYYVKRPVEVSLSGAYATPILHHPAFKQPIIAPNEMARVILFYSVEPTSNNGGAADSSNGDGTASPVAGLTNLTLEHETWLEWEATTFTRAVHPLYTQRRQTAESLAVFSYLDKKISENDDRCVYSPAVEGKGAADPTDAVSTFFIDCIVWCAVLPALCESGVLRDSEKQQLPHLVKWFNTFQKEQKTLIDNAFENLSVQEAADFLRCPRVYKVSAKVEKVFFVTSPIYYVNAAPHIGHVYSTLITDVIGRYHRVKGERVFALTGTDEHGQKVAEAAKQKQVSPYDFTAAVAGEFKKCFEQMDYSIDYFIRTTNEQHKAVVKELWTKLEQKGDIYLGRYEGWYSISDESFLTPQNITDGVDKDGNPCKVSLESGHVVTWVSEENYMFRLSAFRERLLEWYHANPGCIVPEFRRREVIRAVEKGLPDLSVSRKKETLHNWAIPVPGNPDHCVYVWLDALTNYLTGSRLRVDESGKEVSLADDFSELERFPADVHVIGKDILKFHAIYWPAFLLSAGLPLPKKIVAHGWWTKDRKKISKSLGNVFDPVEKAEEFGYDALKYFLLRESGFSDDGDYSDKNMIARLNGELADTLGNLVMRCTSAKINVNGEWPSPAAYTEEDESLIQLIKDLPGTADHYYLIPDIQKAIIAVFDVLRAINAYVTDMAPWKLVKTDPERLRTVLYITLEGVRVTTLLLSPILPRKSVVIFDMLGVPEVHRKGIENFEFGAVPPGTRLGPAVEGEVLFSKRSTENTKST
The class given is functional, Trypanosoma brucei brucei strain 927/4 GUTat10.1.

The target of assay [13] is T4, Methionyl-tRNA synthetase, putative. The class given is functional, Trypanosoma brucei brucei strain 927/4 GUTat10.1. The source holds these as a separate data set.
Assay [14] is described as follows: Counterscreen for inhibitors of Trypanosoma brucei methionyl tRNA synthetase (MetRS): Luminescence-based cell-based high throughput dose response assay to identify compounds that are cytotoxic to Jurkat human T lymphocyte cells. Type of assay: functional.
The nature of assay [15]: cells. Type of assay: functional, cell-based. The source holds these as a separate data set.
The target in assay [16] is T5, Trace amine-associated receptor 1 (Homo sapiens, UniProt Q96RJ0).
T5 sequence (Q96RJ0 whole entry): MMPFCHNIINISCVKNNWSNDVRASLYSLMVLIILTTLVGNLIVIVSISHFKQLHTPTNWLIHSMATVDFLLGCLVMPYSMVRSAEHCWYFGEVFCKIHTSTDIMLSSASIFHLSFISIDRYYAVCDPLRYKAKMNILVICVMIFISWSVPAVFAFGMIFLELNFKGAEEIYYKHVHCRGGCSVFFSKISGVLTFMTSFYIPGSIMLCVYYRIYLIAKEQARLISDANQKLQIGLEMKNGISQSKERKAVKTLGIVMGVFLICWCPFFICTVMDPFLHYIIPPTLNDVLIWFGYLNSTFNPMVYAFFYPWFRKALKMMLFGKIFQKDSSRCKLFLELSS
Nature of the assay: Counterscreen for agonists of the human trace amine associated receptor 1 (hTAAR1): Fluorescence-based cell-based high throughput dose response assay to identify hTAAR1 agonist that also desensitize TAAR1 receptor response. Type of assay: functional.

A short description of assay [17]: cells. The class given is functional, cell-based. This is another data set of the same source.
Assay [18] addresses T5, Trace amine-associated receptor 1. Nature of the assay: Fluorescence-based cell-based high throughput dose response assay to identify agonists of the human trace amine associated receptor 1 (TAAR1). The class given is functional.
The nature of assay [19]: viability loss in CEM21 cells – cell-based, CellTiter-Glo luminescence, cherry-picked, cytotoxicity control for viral fusion inhibitor project, dose response (AID 652042).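 Further: potency for signal decrease meaning cytotoxicity.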 Type of assay: functional. Background: ATP-based viability assays read luminescence as a measure of living cells.
Assay [20] in a line: cytotoxicity in HEK293 background cells – cell-based, dry powder, set 2, counter-screen for EBV LMP1 inhibitor project, dose response (AID 624374). The class given is functional.
The next assay has as its system Vero. Nature of the assay: viability loss in Vero cells – cell-based, plate reader, cherry-pick samples, cytotoxicity control, dose response (AID 687020). The class given is functional. To be noted: Chlorocebus sabaeus.
Assay [21] is described as follows: viability loss in human Jurkat cells – cell-based, luminescence, cytotoxicity control for P. falciparum gametocyte viability project, dose response (AID 1117277).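 Further: potency reflects loss of cellular ATP meaning fewer viable cells.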 Type of assay: functional.
The nature of assay [22]: viability inhibitors of stage V gametocytes – luminescence, dose response (AID 1117278).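 Further: gametocytes exposed to compound for 24 hours.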 The class given is functional, cell-based.
Assay [23] addresses Heat shock protein HSP 90-alpha (Homo sapiens, UniProt P07900). Type of assay: functional, organism-based.
The next assay concerns the target Cytochrome P450 3A4 (Homo sapiens, UniProt P08684).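 Further: CYP3A4 tested as one member of a cytochrome P450 panel screen.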
The target of assay [24] is Long-chain-fatty-acid--AMP ligase FadD28 (Mycobacterium tuberculosis, UniProt P9WQ59). The experiment in a line: Fluorescence polarization aasay to screen for inhibitors that compete for the binding of FadD28 to a bisubstrate Measured in Biochemical System Using Plate Reader - 2147-01_Inhibitor_Dose_CherryPick_Activity. Type of assay: functional, Mycobacterium tuberculosis H37Rv.
Long-chain-fatty-acid--AMP ligase FadD28, sequence (P9WQ59 whole entry): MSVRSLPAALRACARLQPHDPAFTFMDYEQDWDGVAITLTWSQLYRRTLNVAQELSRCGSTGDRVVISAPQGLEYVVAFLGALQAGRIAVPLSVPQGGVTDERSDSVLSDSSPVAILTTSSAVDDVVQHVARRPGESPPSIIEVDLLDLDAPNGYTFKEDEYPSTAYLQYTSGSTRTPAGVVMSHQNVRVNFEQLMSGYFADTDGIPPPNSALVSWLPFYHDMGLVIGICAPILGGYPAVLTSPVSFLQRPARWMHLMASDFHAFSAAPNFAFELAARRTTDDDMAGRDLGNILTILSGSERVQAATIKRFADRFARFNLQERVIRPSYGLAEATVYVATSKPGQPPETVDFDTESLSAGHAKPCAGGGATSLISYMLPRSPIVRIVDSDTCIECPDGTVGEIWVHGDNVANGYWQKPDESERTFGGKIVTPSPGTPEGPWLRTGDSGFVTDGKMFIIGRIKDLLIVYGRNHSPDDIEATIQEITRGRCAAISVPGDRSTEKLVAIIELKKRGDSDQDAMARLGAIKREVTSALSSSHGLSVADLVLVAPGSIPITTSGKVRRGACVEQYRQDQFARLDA

Assay [25] has as its target Voltage-gated inwardly rectifying potassium channel KCNH2 (Homo sapiens, UniProt Q12809). To be noted: Potency.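 Further: confirmatory quantitative high-throughput screen measuring inhibition of hERG channel activity.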

Fructose-bisphosphate aldolase, sequence (P9WQA3 whole entry): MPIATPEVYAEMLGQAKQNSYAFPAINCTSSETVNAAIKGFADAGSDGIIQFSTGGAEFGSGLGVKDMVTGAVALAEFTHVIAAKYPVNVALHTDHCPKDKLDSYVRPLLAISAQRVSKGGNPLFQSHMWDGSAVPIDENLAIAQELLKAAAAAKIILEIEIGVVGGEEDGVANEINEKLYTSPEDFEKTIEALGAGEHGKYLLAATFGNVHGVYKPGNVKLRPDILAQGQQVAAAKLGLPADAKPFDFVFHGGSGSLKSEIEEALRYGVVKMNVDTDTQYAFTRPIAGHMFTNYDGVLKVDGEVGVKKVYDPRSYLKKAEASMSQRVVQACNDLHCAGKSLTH
Voltage-gated inwardly rectifying potassium channel KCNH2, sequence (Q12809 whole entry): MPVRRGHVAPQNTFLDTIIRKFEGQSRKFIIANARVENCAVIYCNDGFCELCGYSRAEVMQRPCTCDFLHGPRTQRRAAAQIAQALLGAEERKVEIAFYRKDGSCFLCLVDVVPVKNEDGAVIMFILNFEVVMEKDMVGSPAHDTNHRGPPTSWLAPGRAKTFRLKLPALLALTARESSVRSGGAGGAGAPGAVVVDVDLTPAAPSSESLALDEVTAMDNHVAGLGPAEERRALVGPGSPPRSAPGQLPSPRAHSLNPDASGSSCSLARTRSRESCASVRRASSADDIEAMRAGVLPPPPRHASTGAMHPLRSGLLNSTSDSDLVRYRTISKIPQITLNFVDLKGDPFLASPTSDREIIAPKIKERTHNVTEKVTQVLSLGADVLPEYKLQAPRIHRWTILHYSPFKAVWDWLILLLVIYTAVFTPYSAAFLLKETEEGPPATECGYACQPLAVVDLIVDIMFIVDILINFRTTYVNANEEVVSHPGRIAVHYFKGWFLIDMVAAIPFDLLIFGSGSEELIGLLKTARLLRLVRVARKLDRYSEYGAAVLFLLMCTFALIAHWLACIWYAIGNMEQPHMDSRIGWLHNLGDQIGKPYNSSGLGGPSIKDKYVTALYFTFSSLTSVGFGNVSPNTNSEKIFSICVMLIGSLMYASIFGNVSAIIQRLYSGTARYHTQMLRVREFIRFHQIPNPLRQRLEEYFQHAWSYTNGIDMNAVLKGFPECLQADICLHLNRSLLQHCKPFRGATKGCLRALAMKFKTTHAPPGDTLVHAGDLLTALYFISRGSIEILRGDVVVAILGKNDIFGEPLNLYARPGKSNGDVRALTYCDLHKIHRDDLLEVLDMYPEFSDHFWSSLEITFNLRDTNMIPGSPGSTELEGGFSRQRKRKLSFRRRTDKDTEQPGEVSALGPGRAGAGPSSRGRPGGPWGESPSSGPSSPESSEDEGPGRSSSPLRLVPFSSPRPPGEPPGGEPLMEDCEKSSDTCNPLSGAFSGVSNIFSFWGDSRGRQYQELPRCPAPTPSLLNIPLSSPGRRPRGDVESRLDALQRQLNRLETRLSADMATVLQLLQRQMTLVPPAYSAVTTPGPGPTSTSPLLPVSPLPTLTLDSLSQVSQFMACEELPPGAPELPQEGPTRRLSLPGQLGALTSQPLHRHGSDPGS
Cytochrome P450 3A4, sequence (P08684 whole entry): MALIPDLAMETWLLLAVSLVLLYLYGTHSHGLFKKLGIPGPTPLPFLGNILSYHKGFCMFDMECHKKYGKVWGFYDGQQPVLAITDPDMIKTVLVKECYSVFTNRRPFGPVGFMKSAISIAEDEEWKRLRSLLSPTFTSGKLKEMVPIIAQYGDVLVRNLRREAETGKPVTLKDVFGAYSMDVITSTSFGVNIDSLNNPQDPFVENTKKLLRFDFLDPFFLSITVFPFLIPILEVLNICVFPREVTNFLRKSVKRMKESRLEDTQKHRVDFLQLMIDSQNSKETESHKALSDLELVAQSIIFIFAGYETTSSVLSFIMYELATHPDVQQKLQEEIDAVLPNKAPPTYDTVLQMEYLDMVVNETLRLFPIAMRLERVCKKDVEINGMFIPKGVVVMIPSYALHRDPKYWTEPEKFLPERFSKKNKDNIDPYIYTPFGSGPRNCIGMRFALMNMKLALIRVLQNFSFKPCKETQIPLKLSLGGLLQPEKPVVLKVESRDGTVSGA

Take `NC(=O)c1sc2nccc(Nc3ccccc3)c2c1N`: the half-maximal effective concentration (EC50) in the assay “cells [1]” and in “cells [2]” was > 350 µM (not active) each time. Further, the half-maximal activity concentration (AC50) in assay [3] is < 0.26 µM (active); in the assay with HEK293 it was 3.96 µM (active); in [4], 2.12 µM (active); in [5], 0.726 µM (active); in assay [6], 1.37 µM (active).

In the case of `O=C1Nc2cc(C(=O)NCCCN3CCOCC3)ccc2S/C1=C/c1ccccc1F`, the EC50 in assay [7] is 2.66 µM (active). Besides, the IC50 at Beta-lactamase [8], at Beta-lactamase [9] and at Beta-lactamase [10] was > 59.6 µM (inactive) throughout.

As for `CC(C)(C)C(=O)Nc1nnc(CSCc2ccccc2F)s1`, the IC50 was > 59.6 µM (inactive) at Beta-lactamase [8]; > 59.6 µM (inactive) at Beta-lactamase [9]; 6.65 µM (active) at Phospholipase A2; > 59.6 µM (inactive) at Beta-lactamase [10]; 8.86 µM (active) on Cysteine protease ATG4B.

For `CCCC1OC23CCCCC2C(C#N)(C(=N)O3)C1(C#N)C#N` (stereo unspecified), in assay [11], the IC50 was > 9.99 µM (inactive).

Regarding `Cc1ccc(NC(=O)CN(C)C(=O)Cc2ccc(Cl)cc2Cl)cc1`, the half-inhibitory concentration (IC50) in assay [12] was 6.81 µM (active); in assay [13], 16.5 µM (inactive); in assay [14], 83.3 µM (inactive).

As to `O=C(CC1CCCC1)N[C@H](C(=O)N1CCC[C@H]1C(=O)NCCc1ccccc1Cl)c1ccccc1`, the values for the IC50 (in “cells [15]”; in [16]) were > 29.9 µM (inactive) and 6.57 µM (active), respectively. For the same compound, the EC50 was > 29.9 µM (inactive) in “cells [17]” and 2.2 µM (active) in assay [18].

As to `COc1ccc2c3c([nH]c2c1)[C@H](CO)N(C(=O)Nc1cccc(F)c1)CC31CCN(S(=O)(=O)c2ccccc2)CC1`, the half-maximal activity concentration (AC50) in assay [19] is 19.4 µM (active); in assay [6] it was 25.4 µM (active).

Compound `C[C@H](NC(=O)C[C@@H]1C=C[C@@H](NC(=O)Cc2ccccn2)[C@@H](CO)O1)c1ccccc1` returned an AbsAC35 in [20] of 153.45 µM.

In assay [20], `CN1C(=O)c2cc(NC(=O)Cc3cccs3)ccc2OC[C@@H]2O[C@H](CC(=O)NCc3ccc(-c4ccccc4)cc3)CC[C@H]21` yielded an AbsAC35 of 112.32 µM.

Regarding `O=[N+]([O-])c1ccc(-c2ccc(/C=N/c3cccc4ccccc34)o2)cc1`, the IC50 in assay [11] is 8.15 µM (active).

For the compound `COc1ccc(C2=Nn3c(nnc3-c3ccccc3OC)SC2)cc1OCC1CC1`, the concentration at half-maximal activity (AC50) with Vero is 29.1 µM (active). For the same compound, the half-inhibitory concentration (IC50) is 0.35 µM (active) in [21] and > 109 µM (inactive) in assay [22].

In the case of `CCCCCCCC/C=C\CCCCCCCC(=O)NCCO` [OLEOYLETHANOLAMIDE], the AC50 in assay [23] is 7.67 µM (active); at Cytochrome P450 3A4, 31.6 µM (inconclusive); in assay [24], > 100 µM (inactive); in assay [25] it was 35.5 µM (inconclusive).

These data come from ChEMBL document CHEMBL1201862, “PubChem BioAssay data set” (2004).
